The target of assay [1] is T1, YpdA (Staphylococcus aureus, UniProt A0A0H2WWS2).
T1 construct: gene SACOL1520; full-length, His6-tagged, pET11b, E. coli BL21(DE3) pLysS, Ni-NTA purified, prereduced with DTT
In words: NADPH consumption at […] nm. The conditions noted are these: 12.5 uM YpdA, 40 uM BSSB, 500 uM NADPH, 20 mM Tris, 1.25 mM EDTA, pH 8.0. The class given is biochemical.

Assay [2] deals with T1, YpdA. The experiment in a line: UV-visible spectrum of purified enzyme. The class given is binding. The conditions noted are these: co-purified flavin, absorbance peaks at 375 and 450 nm.

T1 sequence (A0A0H2WWS2 entry or part of it): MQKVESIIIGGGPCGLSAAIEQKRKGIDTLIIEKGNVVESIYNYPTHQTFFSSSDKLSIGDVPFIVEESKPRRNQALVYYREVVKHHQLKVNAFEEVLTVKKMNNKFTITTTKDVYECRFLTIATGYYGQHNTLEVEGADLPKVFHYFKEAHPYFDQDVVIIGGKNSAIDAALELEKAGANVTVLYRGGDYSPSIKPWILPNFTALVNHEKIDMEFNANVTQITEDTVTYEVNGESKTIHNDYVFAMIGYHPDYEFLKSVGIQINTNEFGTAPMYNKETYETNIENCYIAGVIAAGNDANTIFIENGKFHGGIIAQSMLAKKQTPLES

`N[C@@H](CSSC[C@H](N)C(=O)N[C@H]1[C@@H](O[C@@H](CC(=O)O)C(=O)O)O[C@H](CO)[C@@H](O)[C@@H]1O)C(=O)N[C@H]1[C@@H](O[C@@H](CC(=O)O)C(=O)O)O[C@H](CO)[C@@H](O)[C@@H]1O` [BSSB]: the “NADPH consumption at 340 nm” value at YpdA [1] is “Incubation of YpdA protein with BSSB resulted in significant and fast consumption of NADPH”.

For `Cc1cc2nc3c(=O)[nH]c(=O)nc-3n(C[C@H](O)[C@H](O)[C@H](O)COP(=O)(O)OP(=O)(O)OC[C@H]3O[C@@H](n4cnc5c(N)ncnc54)[C@H](O)[C@@H]3O)c2cc1C` [FAD], the “UV-visible spectrum of purified enzyme” value at YpdA [2] is reported as “UV-visible spectrum revealed the presence of the FAD co-factor”.

As for `NC(=O)C1=CN([C@@H]2O[C@H](COP(=O)(O)OP(=O)(O)OC[C@H]3O[C@@H](n4cnc5c(N)ncnc54)[C@H](OP(=O)(O)O)[C@@H]3O)[C@@H](O)[C@H]2O)C=CC1` [NADPH], the “NADPH consumption at 340 nm” value at YpdA [1] was “Purified YpdA is able to reduce BSSB back to BSH with electrons from NADPH”.

Values taken from PMC6591457, “Staphylococcus aureus Uses the Bacilliredoxin (BrxAB)/Bacillithiol Disulfide Reductase (YpdA) Redox Pathway to Defend Against Oxidative Stress Under Infections” (Frontiers in Microbiology, 2019).
